The values that follow are results of earlier work, collected in US20090117053A1, “LOCAL DELIVERY OF 5-AMINOLEVULINIC-ACID BASED COMPOUNDS TO TISSUES AND ORGANS FOR DIAGNOSTIC AND THERAPEUTIC PURPOSES” (Boston Scientific Scimed, Inc., priority 2007, published 2009).

For one series, the system named is protoporphyrin IX (PPIX). The conditions noted are these: compared with ALA hydrochloride and various other ALA ester hydrochlorides.
The conditions of series [1]: compared with ALA hydrochloride and various other ALA ester hydrochlorides.
For series [2] the following is noted: comparison between ALA-based compounds.

`CCCCCCSC(=O)CCC(=O)CN.Cl` [ALA thiohexylester hydrochloride, ALA thiohexyl ester hydrochloride]: the PPIX levels entry in the series with protoporphyrin IX (PPIX) is recorded as “appreciably increased PPIX levels”. Also, in series [1], the phototoxicity entry was “improved phototoxicity”.
For the molecule `CCOC(=O)CCC(=O)CN.Cl` [ALA ethyl ester hydrochloride], in series [2], the “hydrophilicity (relative ranking)” value is recorded as “more hydrophilic than ALA n-propyl ester hydrochloride”.
On to `COC(=O)CCC(=O)CN.Cl` [ALA methyl ester hydrochloride], for which the “hydrophilicity (relative ranking)” value in series [2] is reported as “more hydrophilic than ALA ethyl ester hydrochloride”.
With `Cl.NCC(=O)CCC(=O)OCCC(F)(F)C(F)(F)C(F)(F)C(F)(F)F` [ALA nonafluorohexylester hydrochloride], in the series with protoporphyrin IX (PPIX), the PPIX levels entry is “appreciably increased PPIX levels”. Also, in series [1], the phototoxicity entry is listed as “improved phototoxicity”.
On to `Cl.NCC(=O)CCC(=O)O` [ALA hydrochloride, 5-aminolevulinic acid hydrochloride], for which, in series [2], the “hydrophilicity (relative ranking)” value is listed as “more hydrophilic than ALA methyl ester hydrochloride”.
In the case of ALA dibenzyldiester dihydrochloride, the PPIX levels result in the series with protoporphyrin IX (PPIX) was “appreciably increased PPIX levels”. Further, the phototoxicity result in series [1] is “improved phototoxicity”.
